Reference: patent publication US20250092065A1, “2-(INDAZOL-5-YL)-6-(PIPERIDIN-4-YL)-1,7-NAPHTHYRIDINE DERIVATIVES AND RELATED COMPOUNDS AS MODULATORS FOR SPLICING NUCLEIC ACIDS AND FOR THE TREATMENT OF PROLIFERATIVE DISEASES” (REMIX THERAPEUTICS INC., priority 2022, published 2025)
Like-named read-outs stand apart in the source and are kept apart here.

How the values were obtained:
HTT = assay: HiBiT protein abundance assay, HTT (K562 HiBiT knock-in); type: cell-based, human; details: HiBiT knock-in K562 cells, 24 hours, top dose 10 μM
Method: (§1) Compounds described herein were used to screen for effects on quantitative protein abundance using a HiBit assay system (Promega). Quantitative protein abundance was determined by measuring the protein levels of HiBit-tagged protein targets expressed in cell culture via luminescence using the Nano-Glo HiBiT Lytic Detection System, which uses a split complementation assay format to reconstitute NanoBiT enzyme to generate a luminescent signal. A protein abundance assay was developed such that endogenous protein targets could be modified with the HiBiT peptide tag and their abundance could be assessed after compound treatment. Briefly, K562 cell lines containing a HiBiT-modification were treated with various compounds described herein (e.g., compounds of Formulas (I), or (II)). After treatment for 24 hours, the protein abundance of a specific target was determined by measuring luminescence.
(§2) Cells were maintained in IMIDM with 10% FBS. Before the assay, cells were diluted with […] growth media (IMIDM+[…] media) and were seeded in a 384-well plate at a density of 10000 cells/well (for each cell line listed in Table 6). Each compound was prepared as a 10-point 3-fold serial dilution in DMSO with the top dose at a final concentration of 10 μM in the well. Unmodified K562 cells were added at the previously specified density with DMSO to serve as an assay baseline and positive control (PC) and DMSO only with the respective modified cell lines was added to the negative control (NC) columns. Final DMSO concentration was kept at or below 0.25%. Treated cell plates were placed in an incubator at 37° C. with […] for 24 hours. After 24 hours, 25 μL of Complete HiBit Lytic reagent was added to each well at room temperature (e.g. one plate requiring 10 mL Lytic Buffer, 100 μL LgBiT Protein, 200 μL Lytic Substrate), shaken for 5 minutes at 600 RPM, then left to sit for 10 minutes for signal to stabilize before reading on a Spark Cyto plate reader (Tecan) with a 500 ms measurement time.
(§3) To determine compound effects on protein abundance of each target in Table 6, the percent response for each respective cell line was calculated at each compound concentration as follows:
(§4) % response=100*(S−PC)(NC−PC)
(§5) For the normalized response at each concentration, a four-parameter logistical regression was fit to the data and the response was interpolated at the […] to determine a concentration for protein abundance at 50% (IC50) the untreated control.

Target C = assay: HiBiT protein abundance assay, Target C (K562 HiBiT knock-in); type: cell-based, human; details: HiBiT knock-in K562 cells, 24 hours, top dose 10 μM
Method: as §2, §3, §4, §5

MYB = assay: HiBiT protein abundance assay, MYB (K562 HiBiT knock-in); type: cell-based, human; details: HiBiT knock-in K562 cells, 24 hours, top dose 10 μM
Method: as §1, §2, §3, §4, §5

K562 cells = assay: Cell Titer Glo 2.0 cell viability (toxicity) assay, K562; details: 500 cells/well, 72 hours
MYB mRNA = assay: RT-qPCR splicing assay, MYB mRNA canonical (CJ) and alternative (AJ) junction; type: cell-based, human; details: Homo sapiens
Method: (§6) Compounds described herein were used to modulate RNA transcript abundance in cells. The expression of a target mRNA was measured by detecting the formation of an exon-exon junction in the canonical transcript (CJ). A compound mediated exon-inclusion event was detected by observing an increase in formation of a new junction with an alternative exon (AJ). Real-time qPCR assays were used to detect these splicing switches and interrogate the potency of various compounds towards different target genes. A high-throughput real time quantitative PCR (RT-qPCR) assay was developed to measure these two isoforms of the mRNA (CJ and AJ) for exemplary genes, such as HTT, SMN2, and MYB, together with a control housekeeping gene, GAPDH or GUSB or PPIA, used for normalization. Briefly, the A673 or K562 cell line was treated with various compounds described herein (e.g., compounds of Formula (I)). After treatment, the levels of the HTT, MYB, or SMN2 mRNA targets were determined from each sample of cell lysate by cDNA synthesis followed by qPCR.
(§7) The A673 cell line was cultured in DMEM with 10% FBS. Cells were diluted with full growth media and plated in a 96-well plate (15,000 cells in 100 ul media per well). The plate was incubated at 37° C. with 5% CO2 for 24 hours to allow cells to adhere. An 11-point 3-fold serial dilution of the compounds was made in DMSO then diluted in media in an intermediate plate. Compounds were transferred from the intermediate plate to the cell plate with the top dose at a final concentration of 10 uM in the well. Final DMSO concentration was kept at or below 0.25%. The cell plate was returned to the incubator at 37° C. with 5% CO2 for an additional 24 hours.
(§8) The K562 cell line was cultured in IMDM with 10% FBS. For K562, cells were diluted with full growth media and plated in either a 96-well plate (50,000 cells in 50 uL media per well) or a 384-well plate (8,000-40,000 cells in 45 uL media per well). An 11-point 3-fold serial dilution of the compounds were made in DMSO then diluted in media in an intermediate plate. Compound was transferred from the intermediate plate to the cell plate with the top dose at a final concentration of 10 uM in the well. Final DMSO concentration was kept at or below 0.25%. Final volume was 100 uL for 96-well plate and 50 uL for 384-well plate. The cell plate was then placed in an incubator at 37° C. with 5% CO2 for 24 hours.
(§9) The cells were then gently washed with 50 uL-100 uL cold PBS before proceeding to addition of lysis buffer. 30 uL-50 μL of room temperature lysis buffer with DNAse I (and optionally RNAsin) was added to each well. Cells were shaken/mixed thoroughly at room temperature for 5-10 minutes for lysis to take place and then 3 uL-5 μL of room temperature stop solution was added and wells were shaken/mixed again. After 2-5 minutes, the cell lysate plate was transferred to ice for RT-qPCR reaction setup. The lysates could also be frozen at −80° C. for later use.
(§10) In some cases, a direct lysis buffer was used. An appropriate volume of 3× lysis buffer (10 mM Tris, 150 mM NaCl, 1.5%-2.5% Igepal and 0.1-1 U/uL RNAsin, pH 7.4) was directly added to either K562 or A673 cells in media and mixed by pipetting 3 times. The plates were then incubated at room temperature with shaking/rocking for 20-50 minutes to allow for lysis to take place. After this time, the cell lysate plate was transferred to ice to set up for the RT-qPCR reactions. The lysates could also be frozen at −80° C. for later use.
(§11) To set up 10 uL RT-qPCR reactions, cell lysates were transferred to 384-well qPCR plates containing the master mix according to the table below. The plates were sealed, gently vortexed, and spun down before the run. The volumes were adjusted accordingly in some instances where the reaction was carried in 20 μL. The table below summarizes the components of the RT-qPCR reactions:
(§12) The RT-qPCR reaction was performed using a QuantStudio (ThermoFisher) under the following fast cycling conditions. […]

HTT mRNA = assay: RT-qPCR splicing assay, HTT mRNA canonical (CJ) and alternative (AJ) junction; type: cell-based, human; details: Homo sapiens
Method: as §6, §7, §8, §9, §10, §11, §12

SMN2 mRNA = assay: RT-qPCR splicing assay, SMN2 mRNA; type: cell-based, human; details: Homo sapiens, canonical junction qPCR panel, Table 4; read-out: SMN2 IC50 (decrease in CJ mRNA levels)
Method: as §6, §7, §8, §9, §10, §11, §12

[1] = RT-qPCR, MYB alternative junction mRNA increase, read-out: MYB AJ (increase in alternative junction mRNA, AC50)
[2] = RT-qPCR, MYB canonical junction mRNA decrease, read-out: MYB CJ (decrease in canonical junction mRNA, IC50)
[3] = canonical junction qPCR panel, Table 4, read-out: MYB IC50 (decrease in CJ mRNA levels)
[4] = RT-qPCR, HTT alternative junction mRNA increase, read-out: HTT AJ (increase in alternative junction mRNA, AC50)
[5] = RT-qPCR, HTT canonical junction mRNA decrease, read-out: HTT CJ (decrease in canonical junction mRNA, IC50)
[6] = canonical junction qPCR panel, Table 4, read-out: HTT IC50 (decrease in CJ mRNA levels)

Row | SMILES | IC50 (HTT) | IC50 (Target C) | IC50 (MYB) | Effect of Exemplary Compounds on Cell Viability, K562 (K562 cells) | AC50 (MYB mRNA; MYB alternative junction mRNA, RT-qPCR, read-out: MYB AJ (increase in AJ mRNA, AC50)) | IC50 (MYB mRNA; MYB canonical junction mRNA, RT-qPCR, read-out: MYB CJ (decrease in CJ mRNA levels, IC50)) | AC50 (HTT mRNA; HTT alternative junction mRNA, RT-qPCR, read-out: HTT AJ (increase in AJ mRNA, AC50)) | IC50 (HTT mRNA; HTT canonical junction mRNA, RT-qPCR, read-out: HTT CJ (decrease in CJ mRNA levels, IC50)) | IC50 (SMN2 mRNA) | AC50 (MYB mRNA; [1]) | IC50 (MYB mRNA; [2]) | IC50 (MYB mRNA; [3]) | AC50 (HTT mRNA; [4]) | IC50 (HTT mRNA; [5]) | IC50 (HTT mRNA; [6])
1 | CN(C(=O)Nc1cn[nH]c1)c1cc2nc(N3CCNCC3)ccc2cn1 [Compound 110] | > 10000 nM | > 10000 nM | > 10000 nM |  |  |  |  |  |  |  |  |  |  |  | 
2 | O=C(Nc1cn[nH]c1)Nc1cc2nc(N3CCNCC3)ccc2cn1 [Compound 111] | > 10000 nM | > 10000 nM | > 10000 nM |  |  |  |  |  |  |  |  |  |  |  | 
3 | O=C(NCc1ccn[nH]1)Nc1cc2nc(N3CCNCC3)ccc2cn1 [Compound 112] | > 10000 nM | > 10000 nM | > 10000 nM |  |  |  |  |  |  |  |  |  |  |  | 
4 | Cn1cc2cc(-c3ccc4cc(C5CCNCC5)ccc4n3)c(O)c(F)c2n1 [Compound 241] | < 100 nM | < 100 nM | < 100 nM | A (A represents <100 nM) | < 100 nM | < 100 nM | < 100 nM | < 100 nM |  |  |  |  |  |  | 
5 | CNC(=O)c1nc(-c2cc3cn(C)nc3c(C)c2O)nc2ccc(N3CCNCC3)cc12 [Compound 501, 2-(6-hydroxy-2,7-dimethylindazol-5-yl)-N-methyl-6-(piperazin-1-yl)quinazoline-4-carboxamide] | 100 to 1000 nM | 100 to 1000 nM | < 100 nM | A (A represents <100 nM) |  |  |  |  |  |  |  |  |  |  | 
6 | C[C@@H]1CN(c2ccc3nc(-c4cc(F)c5nc(CF)cn5c4)ncc3c2)C[C@H](C)N1 [Compound 835, 6-[(3R,5S)-3,5-dimethylpiperazin-1-yl]-2-[8-fluoro-2-(fluoromethyl)imidazo[1,2-a]pyridin-6-yl]quinazoline] |  |  |  | B (B represents 100-1000 nM) |  |  |  |  | < 100 nM | 100 to 1000 nM | 100 to 1000 nM | 100 to 1000 nM | 1000 to 10000 nM | 1000 to 10000 nM | 1000 to 10000 nM
7 | CCc1cn2cc(-c3ncc4cc(N5C[C@@H](C)N[C@@H](C)C5)ccc4n3)cc(F)c2n1 [Compound 836] |  |  |  | C (C represents 1000-9999 nM) |  |  |  |  | 100 to 1000 nM | 1000 to 10000 nM | > 10000 nM | > 10000 nM | > 10000 nM | 1000 to 10000 nM | 1000 to 10000 nM
8 | Cc1nc2c(F)cc(-c3ncc4cc(N5C[C@@H](C)N[C@@H](C)C5)ccc4n3)cn2c1F [Compound 837, 2-{3,8-difluoro-2-methylimidazo[1,2-a]pyridin-6-yl}-6-[(3R,5S)-3,5-dimethylpiperazin-1-yl]quinazoline] |  |  |  | C (C represents 1000-9999 nM) |  |  |  |  | 100 to 1000 nM | 1000 to 10000 nM | 1000 to 10000 nM | 1000 to 10000 nM | 1000 to 10000 nM | 100 to 1000 nM | 100 to 1000 nM
9 | COc1nc(-c2ncc3cc(N4C[C@@H](C)N[C@@H](C)C4)ccc3n2)cn2cc(C)nc12 [Compound 838] |  |  |  | C (C represents 1000-9999 nM) |  |  |  |  | < 100 nM | 100 to 1000 nM | 100 to 1000 nM | 100 to 1000 nM | > 10000 nM | > 10000 nM | > 10000 nM
10 | C[C@H]1CN(c2ccc3nc(-c4cc(F)c5nn(C)c(F)c5c4)ncc3c2)C[C@H](C)N1 [Compound 924] |  |  |  | C (C represents 1000-9999 nM) |  |  |  |  | 100 to 1000 nM | 1000 to 10000 nM | 1000 to 10000 nM | 1000 to 10000 nM | 1000 to 10000 nM | > 10000 nM | > 10000 nM
11 | C[C@@H]1CN(c2ccc3nc(-c4cc(F)c5nn(C)c(F)c5c4)ncc3c2)C[C@H](C)N1 [Compound 925] |  |  |  | C (C represents 1000-9999 nM) |  |  |  |  | 100 to 1000 nM | 1000 to 10000 nM | 1000 to 10000 nM | 1000 to 10000 nM | 100 to 1000 nM | 1000 to 10000 nM | 1000 to 10000 nM
